What was measured:
[1] = molecular target: Human immunodeficiency virus type 1 reverse transcriptase (Human immunodeficiency virus 1, UniProt Q72547); assay: Inhibition of HIV1 recombinant wild type reverse transcriptase by SPA heteropolymeric assay
[2] = molecular target: Human immunodeficiency virus type 1 reverse transcriptase (Human immunodeficiency virus 1, UniProt Q72547, K103N/Y181C); assay: Inhibition of HIV1 recombinant reverse transcriptase K103N/Y181C double mutant by SPA heteropolymeric assay
[3] = tested on: Human immunodeficiency virus 1; assay: Antiviral activity against wild type HIV1 infected in human MT4 cells assessed as reduction of virus-induced cytopathic effect by replication assay in presence of 10% FBS; type: functional, organism-based; details: Human immunodeficiency virus 1, MT4
[4] = tested on: Human immunodeficiency virus 1; assay: Antiviral activity against wild type HIV1 infected in human MT4 cells assessed as reduction of virus-induced cytopathic effect by replication assay in presence of 40% human serum; type: functional, organism-based; details: Human immunodeficiency virus 1, MT4
[5] = tested on: Human immunodeficiency virus 1; assay: Selectivity ratio of IC50 for wild type HIV1 in presence of 40% human serum to IC50 for wild type HIV1 in presence of 10% FBS; type: functional
[6] = tested on: Human immunodeficiency virus 1; assay: Antiviral activity against HIV1 harboring reverse transcriptase K103N/Y181C double mutant infected in human MT4 cells assessed as reduction of virus-induced cytopathic effect by replication assay in presence of 10% FBS; type: functional, organism-based; details: Human immunodeficiency virus 1, MT4
[7] = tested on: Human immunodeficiency virus 1; assay: Antiviral activity against HIV1 harboring reverse transcriptase Y188L mutant infected in human MT4 cells assessed as reduction of virus-induced cytopathic effect by replication assay in presence of 10% FBS; type: functional, organism-based; details: Human immunodeficiency virus 1, MT4
[8] = tested on: Human immunodeficiency virus 1; assay: Antiviral activity against HIV1 harboring reverse transcriptase V106A mutant infected in human MT4 cells assessed as reduction of virus-induced cytopathic effect by replication assay in presence of 10% FBS; type: functional, organism-based; details: Human immunodeficiency virus 1, MT4
[9] = Clearance in human liver microsomes; type: ADME, Microsome
[10] = tested on: Human immunodeficiency virus 1; assay: Antiviral activity against HIV1 harboring reverse transcriptase K103N/L100I double mutant infected in human MT4 cells assessed as reduction of virus-induced cytopathic effect by replication assay in presence of 10% FBS; type: functional, organism-based; details: Human immunodeficiency virus 1, MT4
[11] = molecular target: Human immunodeficiency virus type 1 reverse transcriptase (Human immunodeficiency virus 1, UniProt Q72547, Y188L); assay: Inhibition of HIV1 recombinant reverse transcriptase Y188L mutant by SPA heteropolymeric assay

Structure (SMILES)	IC50 [1] [nM]	IC50 [2] [nM]	IC50 [3] [nM]	IC50 [4] [nM]	Ratio IC50 [5]	IC50 [6] [nM]	IC50 [7] [nM]	IC50 [8] [nM]	microsomal CLint [9] [µL/min/mg]	IC50 [10] [nM]	IC50 [11] [nM]
Cc1cnc(NC2CCN(c3cccc(C(N)=O)c3)CC2)nc1Oc1c(C)cc(C#N)cc1Cl	6	6	1.6	14.2	8.6	5.5	1.4	0.7	580	7.4	–
Cc1cc(C#N)cc(C)c1Oc1nc(NC2CCN(c3ccc(C(N)=O)cc3)CC2)ncc1Br	24	> 1000	–	–	–	–	–	–	–	–	–
Cc1cc(C#N)cc(C)c1Nc1nc(NC2CCN(c3cccc(C(N)=O)c3)CC2)ncc1Br	19	19	1.5	14.2	9.8	11.7	2.7	0.9	42	10.8	75
Cc1cnc(NC2CCN(c3cccc(C(N)=O)c3)CC2)nc1Oc1c(C)cc(C#N)cc1C	12	15	1.1	4.5	4	3.8	< 1.2	0.6	730	6.7	–
Cc1cc(C#N)cc(C)c1Oc1ccnc(NC2CCN(c3cc(Cl)cc(C(N)=O)c3)CC2)n1	28	265	–	–	–	–	–	–	–	–	–
Cc1cc(C#N)cc(C)c1Oc1nc(NC2CCN(Cc3ccc(S(N)(=O)=O)cc3Cl)CC2)ncc1Br	–	–	6.1	48.7	8	7.3	2.8	2	151	5.9	–
Cc1cc(C#N)cc(C)c1Oc1nc(NC2CCN(c3cccc(C(N)=O)c3)CC2)ncc1F	14	14	–	–	–	–	–	–	–	–	35
Cc1cc(C#N)cc(C)c1Oc1nc(Nc2ccc(C#N)cc2)nc(N)c1Br [ETRAVIRINE]	–	–	–	–	–	9.2	–	–	29	–	–
Cc1cc(C#N)cc(C)c1Oc1nc(NC2CCN(c3ccccc3C(N)=O)CC2)ncc1Br	32	967	–	–	–	–	–	–	–	–	–
Cc1cc(C#N)cc(C)c1Oc1nc(NC2CCN(c3cccc(C(N)=O)c3)CC2)ncc1C(F)(F)F	86	41	–	–	–	–	–	–	–	–	–
Cc1cc(C#N)cc(C)c1Oc1nc(NC2CCN(c3cccc(C(=O)O)c3)CC2)ncc1Br	16	> 1000	–	–	–	–	–	–	–	–	–
COc1cc(C#N)cc(C)c1Oc1nc(NC2CCN(c3cccc(C(N)=O)c3)CC2)ncc1Br	56	56	–	–	–	–	–	–	–	–	–
Cc1cc(C#N)cc(Cl)c1Nc1nc(NC2CCN(c3cccc(C(N)=O)c3)CC2)ncc1Br	15	15	1.2	9.9	8.6	4.9	< 1.2	0.5	418	2.9	42
Cc1cc(C#N)cc(C)c1Oc1nc(NC2CCN(c3cccc(C#N)c3)CC2)ncc1Br	103	352	–	–	–	–	–	–	–	–	–
Cc1cc(C#N)cc(C)c1Oc1nc(NC2CCN(c3cccc(C(N)=O)c3)CC2)ncc1Cl	24	13	–	–	–	–	–	–	–	–	203
Cc1cc(C#N)cc(C)c1Oc1nc(NC2CCN(c3cccc(C(N)=O)c3)CC2)ncc1[N+](=O)[O-]	109	64	–	–	–	–	–	–	–	–	–
O=C1Nc2ccc(Cl)cc2[C@@](C#CC2CC2)(C(F)(F)F)O1 [EFAVIRENZ]	–	–	–	–	–	82.8	> 100	–	–	> 100	–
Cc1cc(C#N)cc(C)c1Oc1ccnc(NC2CCN(c3ccc(S(N)(=O)=O)cc3)CC2)n1	24	> 1000	–	–	–	–	–	–	–	–	> 1000
Cc1cc(C#N)cc(C)c1Oc1nc(NC2CCN(c3cccc(C(N)=O)c3)CC2)ncc1Br	19	30	–	–	–	–	–	–	–	–	70

Structure (SMILES)	IC50 [1] [nM]	IC50 [2] [nM]	IC50 [3] [nM]	IC50 [4] [nM]	Ratio IC50 [5]	IC50 [6] [nM]	IC50 [7] [nM]	IC50 [8] [nM]	microsomal CLint [9] [µL/min/mg]	IC50 [10] [nM]	IC50 [11] [nM]
Cc1cc(C#N)cc(C)c1Oc1ccnc(NC2CCN(c3cccc(C#N)c3)CC2)n1	51	772	–	–	–	–	–	–	–	–	–
Cc1cc(C#N)cc(F)c1Oc1nc(NC2CCN(c3cccc(C(N)=O)c3)CC2)ncc1Br	6	6	7.3	18.2	2.5	28	5.5	3.9	82	18.4	29
Cc1cc(C#N)cc(C)c1Oc1nc(NC2CCN(c3cccc(S(N)(=O)=O)c3)CC2)ncc1Br	19	72	–	–	–	–	–	–	–	–	105
Cc1cc(C#N)cc(C)c1Oc1nc(NC2CCN(c3cccc(S(C)(=O)=O)c3)CC2)ncc1Br	42	100	–	–	–	–	–	–	–	–	831
Cc1cc(C#N)cc(Cl)c1Oc1nc(NC2CCN(c3cccc(C(N)=O)c3)CC2)ncc1Cl	20	20	–	–	–	–	–	–	–	–	48
Cc1cc(C#N)cc(C)c1Nc1ccnc(NC2CCN(c3cccc(C(N)=O)c3)CC2)n1	23	23	0.5	13.9	27.1	15.2	3.7	0.8	31	> 100	–
Cc1cc(C#N)cc(C)c1Oc1ccnc(NC2CCN(c3ccc(Cl)c(C(N)=O)c3)CC2)n1	9	192	–	–	–	–	–	–	–	–	–
Cc1cc(C#N)cc(Cl)c1Oc1ccnc(NC2CCN(c3cccc(C(N)=O)c3)CC2)n1	8	8	0.4	7.5	17.4	5.3	1.6	–	274	42	–
COc1cc(C#N)cc(C)c1Oc1nc(NC2CCN(c3cccc(C(N)=O)c3)CC2)ncc1C	21	21	–	–	–	–	–	–	–	–	66
Cc1cc(C#N)cc(C)c1Oc1ccnc(NC2CCN(c3cccc(C(N)=O)c3)CC2)n1	7	16	–	–	–	–	–	–	–	–	34
Cc1cc(C#N)cc(C)c1Oc1nc(NC2CCN(c3cccc(C(N)=O)c3)CC2)ncc1N	19	17	–	–	–	–	–	–	–	–	118
Cc1cc(C#N)cc(Cl)c1Nc1ccnc(NC2CCN(c3cccc(C(N)=O)c3)CC2)n1	36	36	–	–	–	–	–	–	–	–	–
COc1cc(C#N)cc(C)c1Oc1ccnc(NC2CCN(c3cccc(C(N)=O)c3)CC2)n1	18	18	–	–	–	–	–	–	–	–	64
Cc1cc(C#N)cc(C)c1Oc1ccnc(NC2CCN(c3cccc(S(C)(=O)=O)c3)CC2)n1	11	238	–	–	–	–	–	–	–	–	–
Cc1cc(C#N)cc(C)c1Oc1nc(NC2CCN(c3cc(C(N)=O)ccc3Cl)CC2)ncc1Br	76	> 1000	–	–	–	–	–	–	–	–	874
Cc1cc(C#N)cc(C)c1Oc1ccnc(NC2CCN(c3cccc(S(N)(=O)=O)c3)CC2)n1	15	622	–	–	–	–	–	–	–	–	194
Cc1cc(C#N)cc(Cl)c1Oc1nc(NC2CCN(c3cccc(C(N)=O)c3)CC2)ncc1Br	28	28	–	–	–	–	–	–	–	–	413
COc1cc(C#N)cc(C)c1Oc1nc(NC2CCN(c3cccc(C(N)=O)c3)CC2)ncc1Cl	19	19	–	–	–	–	–	–	–	–	101

Source: ChEMBL document CHEMBL1255200, “Exploration of piperidine-4-yl-aminopyrimidines as HIV-1 reverse transcriptase inhibitors. N-Phenyl derivatives with broad potency against resistant mutant viruses” (Bioorg Med Chem Lett, 2010)
